The source of these data is ChEMBL document CHEMBL1127637, “Antiplatelet agents based on cyclooxygenase inhibition without ulcerogenesis. Evaluation and synthesis of 4,5-bis(4-methoxyphenyl)-2-substituted-thiazoles” (J Med Chem, 1994).

pEC50, pIC50: −log10 of the molar value.

Holding throughout (type): functional
In assay [1] the test system is Cavia porcellus. The assay can be described thus: ccInhibitory effect on platelet aggregation induced by Arachidonic acid (AA) in guinea pigs ex vivo at a dose of 3.2 mg/Kg after 6 hr of oral administration.
For assay [2], the system named is Cavia porcellus. The assay can be described thus: Inhibitory effect on platelet aggregation induced by Collagen in guinea pigs ex vivo at a dose of 3.2 mg/Kg after 6 hr of oral administration.
Assay [3] concerns Cavia porcellus. The assay can be described thus: Inhibitory effect on platelet aggregation induced by Collagen in guinea pigs ex vivo at a dose of 1 mg/Kg after 6 hr of oral administration.
The species named for assay [4] is Oryctolagus cuniculus. The assay can be described thus: In vitro antiplatelet activity against arachidonic acid induced malondialdehyde production.
The species entered for assay [5] is Rattus norvegicus. The assay can be described thus: In vitro vasodilatory activity in isolated rat aorta. Conditions: read-out: ED50 (the source's name).
The test system of assay [6] is Cavia porcellus. The assay can be described thus: Inhibitory effect on platelet aggregation induced by Arachidonic acid (AA) in guinea pigs ex vivo at a dose of 1 mg/Kg after 6 hr of oral administration.
The species entered for assay [7] is Oryctolagus cuniculus. The assay can be described thus: Inhibitory activity on the MDA production at 0.01 uM.
For assay [8], the species on record is Oryctolagus cuniculus. The assay can be described thus: Inhibitory activity on the MDA production at 0.1 uM.
The test system of assay [9] is Rattus norvegicus. The assay can be described thus: Induction of acute stomach lesion at a dose of 320 mg/Kg.
Assay [10] has as its system Cavia porcellus. The assay can be described thus: Inhibitory effect on platelet aggregation induced by Collagen in guinea pigs ex vivo at a dose of 3.2 mg/Kg after 1 hr of oral administration.
Assay [11] deals with Rattus norvegicus. The assay can be described thus: Induction of acute stomach lesion at a dose of 32 mg/Kg.
Assay [12] concerns Rattus norvegicus. The assay can be described thus: Induction of acute stomach lesion at a dose of 10 mg/Kg.
Assay [13] concerns Cavia porcellus. The assay can be described thus: Inhibitory effect on platelet aggregation induced by Arachidonic acid (AA) in guinea pigs ex vivo at a dose of 3.2 mg/Kg after 1 hr of oral administration.
Assay [14] concerns Rattus norvegicus. The assay can be described thus: Induction of acute stomach lesion at a dose of 100 mg/Kg.
Assay [15] deals with Rattus norvegicus. The assay can be described thus: Compound was evaluated for collagen-induced platelet aggregation in rat ex vivo at the dose of 32 mg/Kg.
Assay [16] concerns Cavia porcellus. The assay can be described thus: Inhibitory effect on platelet aggregation induced by Arachidonic acid (AA) in guinea pigs ex vivo at a dose of 3.2 mg/Kg after 6 hr of oral administration.
Assay [17] concerns Cavia porcellus. The assay can be described thus: Inhibitory effect on platelet aggregation induced by Arachidonic acid (AA) in guinea pigs ex vivo at a dose of 1 mg/Kg after 1 hr of oral administration.
Assay [18] has as its system Cavia porcellus. The assay can be described thus: Inhibitory effect on platelet aggregation induced by Collagen in guinea pigs ex vivo at a dose of 1 mg/Kg after 1 hr of oral administration.
The species entered for assay [19] is Oryctolagus cuniculus. The assay can be described thus: Inhibitory activity on the MDA production at 1 uM.
Assay [20] concerns Rattus norvegicus. The assay can be described thus: Compound was evaluated for collagen-induced platelet aggregation ex vivo in rat at the dose of 100 mg/Kg.
Assay [21] concerns Cavia porcellus. The assay can be described thus: Inhibitory effect on platelet aggregation induced by Arachidonic acid (AA) in guinea pigs ex vivo at a dose of 1 mg/kg after 6 hr of oral administration.
The test system of assay [22] is Rattus norvegicus. The assay can be described thus: Induction of acute stomach lesion at a dose of 100 mg/Kg was determined in 5 animals.
In assay [23] the test system is Rattus norvegicus. The assay can be described thus: Induction of acute stomach lesion at a dose of 32 mg/Kg was determined in 5 animals.
Assay [24] concerns Cavia porcellus. The assay can be described thus: Inhibitory effect on platelet aggregation induced by Arachidonic acid (AA) in guinea pigs ex vivo at a dose of 1 mg/kg after 1 hr of oral administration.
For assay [25], the system named is Cavia porcellus. The assay can be described thus: Inhibitory effect on platelet aggregation induced by Arachidonic acid in guinea pigs ex vivo at a dose of 3.2 mg/Kg after 1 hr of oral administration.

Usually inhibition in vivo stands for the relative decrease from the control value, in per cent. Usually pIC50 stands for the negative decadic logarithm of the IC50, by convention in mol/L. A higher pIC50 goes with a small IC50. In the case of `COc1ccc(-c2nc(CNC(=O)NC(C)C)sc2-c2ccc(OC)cc2)cc1`, the inhibition in vivo at 3.2 mg/kg with Cavia porcellus [1] and in the assay on Cavia porcellus [2] was 100% throughout. In addition, the inhibition in vivo at 1 mg/kg in the assay on Cavia porcellus [3] and with Cavia porcellus [6] was 100% throughout. Further, the pIC50 in the assay filed under Oryctolagus cuniculus [4] was 7.38. The pEC50 in the assay filed under Rattus norvegicus [5] was 5.24.

For orientation: Inhibition means the relative decrease from the control value, in per cent. `COc1ccc(-c2nc(C(=O)N3CCOCC3)sc2-c2ccc(OC)cc2)cc1` gave a pIC50 in the assay listed under Oryctolagus cuniculus [4] greater than 8.00. Besides, the pEC50 in the assay listed under Rattus norvegicus [5] was greater than 4.00. For the same compound, the Inhibition in the assay listed under Oryctolagus cuniculus [7] worked out at 74.8%.

The compound `CCN(CC)C(=O)c1nc(-c2ccc(OC)cc2)c(-c2ccc(OC)cc2)s1` showed a pIC50 in the assay filed under Oryctolagus cuniculus [4] greater than 8.00. In the assay listed under Rattus norvegicus [5], the pEC50 was 4.85. Moreover, the Inhibition in the assay listed under Oryctolagus cuniculus [7] was 65%.

For the compound `COc1ccc(-c2nc(C(=O)NCCc3cccnc3)sc2-c2ccc(OC)cc2)cc1`, the Inhibition in the assay filed under Oryctolagus cuniculus [8] is reported as 56.6%. Further, the pIC50 in the assay filed under Oryctolagus cuniculus [4] is greater than 7.00. Moreover, the pEC50 in the assay listed under Rattus norvegicus [5] was 4.70.

One may read the ED50 as the dose at which the effect has come halfway, by size or by number of responders. Lower therefore signals greater potency. With `CC(=O)Oc1ccccc1C(=O)O` [ASPIRIN], the Ulcer index with Rattus norvegicus [9] is recorded as 3.8; with Rattus norvegicus [11], 2; in the assay with Rattus norvegicus [12], 0.6; with Rattus norvegicus [14] it was 2.2. In addition, the results for the Inhibition % in the assay on Cavia porcellus [10] and in the assay on Cavia porcellus [13] were 9% and 64%, respectively. For the same compound, the pIC50 in the assay listed under Oryctolagus cuniculus [4] is 4.80. The pEC50 in the assay listed under Rattus norvegicus [5] is less than 3.22. This compound registered an ED50 in the assay on Rattus norvegicus [15] of 8.4 mg/kg.

Consider `COc1ccc(-c2nc(CN(C)C)sc2-c2ccc(OC)cc2)cc1`, for which the Inhibition % in the assay with Cavia porcellus [16] is 0%; in the assay on Cavia porcellus [10], 100%; in the assay with Cavia porcellus [2], 0%; with Cavia porcellus [13], 100%. The compound also gave a pIC50 in the assay listed under Oryctolagus cuniculus [4] of 7.02. For the same compound, the pEC50 in the assay listed under Rattus norvegicus [5] is 5.08.

Turning to `COc1ccc(-c2nc(CNC(C)=O)sc2-c2ccc(OC)cc2)cc1`, the Inhibition % is 26.6% in the assay with Cavia porcellus [3] and 60.9% in the assay with Cavia porcellus [6]. Also, the pIC50 in the assay listed under Oryctolagus cuniculus [4] was 7.82. For the same compound, in the assay filed under Rattus norvegicus [5], the pEC50 was 5.09.

Compound `COc1ccc(-c2nc(CNC(=O)CSc3ccccc3)sc2-c2ccc(OC)cc2)cc1` showed an Inhibition in the assay listed under Oryctolagus cuniculus [8] of 73.6%. In addition, the figures for the inhibition in vivo at 1 mg/kg in the assay on Cavia porcellus [3] and in the assay on Cavia porcellus [6] were -2.6% and 16.5%, respectively. Moreover, the pIC50 in the assay listed under Oryctolagus cuniculus [4] is greater than 7.00. The pEC50 in the assay filed under Rattus norvegicus [5] was 5.38.

Consider `COc1ccc(-c2nc(CNC(=O)C3=NNC(=O)CC3)sc2-c2ccc(OC)cc2)cc1`, for which the values for the inhibition in vivo at 3.2 mg/kg in the assay on Cavia porcellus [16] and with Cavia porcellus [2] were 100% and 94.1%, respectively. Further, the figures for the inhibition in vivo at 1 mg/kg in the assay with Cavia porcellus [3] and in the assay on Cavia porcellus [6] were 84.3% and 100%, respectively. For the same compound, the pIC50 in the assay filed under Oryctolagus cuniculus [4] was 7.26.

In the assay filed under Oryctolagus cuniculus [8], `COc1ccc(-c2nc(CNC(=O)CSC)sc2-c2ccc(OC)cc2)cc1` returned an Inhibition of 73.3%. Also, the inhibition in vivo at 1 mg/kg was -13.3% in the assay with Cavia porcellus [3] and -3.9% in the assay on Cavia porcellus [6]. The pIC50 in the assay filed under Oryctolagus cuniculus [4] is greater than 7.00. For the same compound, in the assay filed under Rattus norvegicus [5], the pEC50 was 5.22.

Turning to `COc1ccc(-c2nc(C(=O)N(C)C)sc2-c2ccc(OC)cc2)cc1`, in the assay listed under Oryctolagus cuniculus [8], the Inhibition was determined as 51.4%. Also, the inhibition in vivo at 3.2 mg/kg in the assay with Cavia porcellus [16] is 89%; in the assay with Cavia porcellus [2], 4.1%. The same compound had a pIC50 in the assay listed under Oryctolagus cuniculus [4] greater than 7.00.

Consider `COc1ccc(-c2nc(N3CCN(C)CC3)sc2-c2ccc(OC)cc2)cc1`, for which the results for the inhibition in vivo at 1 mg/kg in the assay on Cavia porcellus [3] and in the assay on Cavia porcellus [6] were 65.4% and 60.9%, respectively. In addition, in the assay listed under Oryctolagus cuniculus [4], the pIC50 was 7.41. The pEC50 in the assay filed under Rattus norvegicus [5] is 5.28.

Turning to `COc1ccc(-c2nc(/N=C(\N)N(C)C)sc2-c2ccc(OC)cc2)cc1`, the Inhibition % is 100% in the assay on Cavia porcellus [16]; 100% with Cavia porcellus [10]; 98% with Cavia porcellus [2]; 48.5% in the assay on Cavia porcellus [17]; 100% in the assay on Cavia porcellus [13]; 33.1% in the assay on Cavia porcellus [18]. In addition, in the assay listed under Oryctolagus cuniculus [4], the negative-log IC50 (pIC50) is 7.43.

As to `COc1ccc(-c2nc(/N=C(\N)N3CCOCC3)sc2-c2ccc(OC)cc2)cc1`, the Inhibition in the assay listed under Oryctolagus cuniculus [19] is given as 79.9%. In the assay filed under Oryctolagus cuniculus [4], the pIC50 is greater than 6.00. Further, the pEC50 in the assay listed under Rattus norvegicus [5] is 4.18.

With `Cc1cc(/N=C(\Nc2nccs2)NC2CCCCC2)c2ccccc2n1` [TIMEGADINE], the Inhibition % came to 14.5% with Cavia porcellus [17] and 52.4% with Cavia porcellus [13]. In addition, the pIC50 in the assay listed under Oryctolagus cuniculus [4] was 7.51. The pEC50 in the assay listed under Rattus norvegicus [5] is 5.60.

As to `COc1ccc(-c2nc(C(=O)N3CCN(C)CC3)sc2-c2ccc(OC)cc2)cc1` [FR-122047], the inhibition in vivo at 3.2 mg/kg with Cavia porcellus [16] and with Cavia porcellus [2] was 100% each time. The same compound had an ED50 in the assay with Rattus norvegicus [20] of 1.4 mg/kg. Moreover, the inhibition in vivo at 1 mg/kg with Cavia porcellus [21] was determined as 100%; with Cavia porcellus [3] it was 83.1%. The same compound had a pIC50 in the assay listed under Oryctolagus cuniculus [4] of 7.06. This compound also registered a Ulcer index with Rattus norvegicus [14] of 0.

Consider `COc1ccc(-c2nc(C(F)(F)F)sc2-c2ccc(OC)cc2)cc1` [ITAZIGREL], for which the Ulcer index in the assay with Rattus norvegicus [22] amounted to 1.4; with Rattus norvegicus [23] it was 0.4. Besides, the Inhibition % with Cavia porcellus [17] was found to be 100%; in the assay on Cavia porcellus [18] it was 100%; in the assay on Cavia porcellus [3] it was 79%; in the assay with Cavia porcellus [6], 100%. Also, the pIC50 in the assay filed under Oryctolagus cuniculus [4] was 8.25. For the same compound, the pEC50 in the assay listed under Rattus norvegicus [5] was less than 3.52.

As to `CNC(=N)Nc1nc(-c2ccc(OC)cc2)c(-c2ccc(OC)cc2)s1`, the Inhibition % in the assay with Cavia porcellus [10] worked out at 76.2%; in the assay with Cavia porcellus [24] it was 100%; in the assay on Cavia porcellus [18], 9%; in the assay with Cavia porcellus [25], 100%. The compound further had a pIC50 in the assay filed under Oryctolagus cuniculus [4] of 7.21. Also, the pEC50 in the assay listed under Rattus norvegicus [5] is 5.92.
